Measurements taken from US20260132132A1, “3A,4,5,6-TETRAHYDRO-1 H-PYRAZOLO[3,4-C]PYRIDIN-7(7AH)-ONE DERIVATIVES AS FACTOR XIIA INHIBITORS” (KALVISTA PHARMACEUTICALS LIMITED, priority 2022, published 2026).

Target: T1, Human Factor XIIa (hFXIIa) (Homo sapiens, UniProt P00748)
T1 construct: purchased Enzyme Research Laboratories
T1 sequence (P00748 373-615 limits assumed): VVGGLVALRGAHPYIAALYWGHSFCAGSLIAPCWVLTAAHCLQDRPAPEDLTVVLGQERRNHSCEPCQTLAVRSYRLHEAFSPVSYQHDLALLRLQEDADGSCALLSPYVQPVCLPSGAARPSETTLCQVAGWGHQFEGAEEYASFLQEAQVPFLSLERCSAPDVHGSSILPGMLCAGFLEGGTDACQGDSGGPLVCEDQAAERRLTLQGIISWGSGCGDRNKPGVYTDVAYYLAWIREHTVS
T1 sequence (P00748 20-372 partner limits assumed): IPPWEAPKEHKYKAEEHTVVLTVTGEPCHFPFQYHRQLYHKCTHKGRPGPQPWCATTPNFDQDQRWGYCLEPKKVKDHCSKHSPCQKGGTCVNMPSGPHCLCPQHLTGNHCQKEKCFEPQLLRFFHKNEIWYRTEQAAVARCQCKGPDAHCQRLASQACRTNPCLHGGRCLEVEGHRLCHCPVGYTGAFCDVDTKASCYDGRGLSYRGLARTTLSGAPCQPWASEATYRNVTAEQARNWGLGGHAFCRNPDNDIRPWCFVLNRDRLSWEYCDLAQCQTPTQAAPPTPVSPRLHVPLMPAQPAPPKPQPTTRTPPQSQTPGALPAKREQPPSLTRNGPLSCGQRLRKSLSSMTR
Experiment: Determination of Human Factor XIIa (hFXIIa) inhibition, fluorogenic substrate IC50 assay
Type: biochemical
Conditions: fluorogenic substrate H-DPro-Phe-Arg-AFC at Km, 25° C., read-out: Human FXIIa IC50
Procedure: Determination of Human Factor XIIa (hFXIIa) inhibition
The Km for the cleavage of the substrate by hFXIIa was determined by standard transformation of the Michaelis-Menten equation, with subsequent inhibition assays performed at substrate Km concentration.

| SMILES | IC50 [nM] |
| --- | --- |
| O=C(NCc1ccccc1)c1nn(-c2cccc(Cl)c2)c2c1CCN(c1ccc3c(c1)CN(CCO)CC3)C2=O [Example 1107, N-benzyl-1-(3-chlorophenyl)-6-(2-(2-hydroxyethyl)-1,2,3,4-tetrahydroisoquinolin-7-yl)-7-oxo-4,5,6,7-tetrahydro-1H-pyrazolo[3,4-c]pyridine-3-carboxamide] | 10 to 100 |
| CC(=O)NCCN1CCc2ccc(N3CCc4c(C(=O)NCC5CC5)nn(-c5cccc(Cl)c5)c4C3=O)cc2C1 [Example 1081, 6-(2-(2-acetamidoethyl)-1,2,3,4-tetrahydroisoquinolin-7-yl)-1-(3-chlorophenyl)-N-(cyclopropylmethyl)-7-oxo-4,5,6,7-tetrahydro-1H-pyrazolo[3,4-c]pyridine-3-carboxamide] | 300 to 1000 |
| CN1CCc2ccc(N3CCc4c(C(=O)NCC(O)C5CC5)nn(-c5cccc(Cl)c5)c4C3=O)cc2C1 (centres unmarked) [Example 1058, 1-(3-chlorophenyl)-N-(2-cyclopropyl-2-hydroxyethyl)-6-(2-methyl-1,2,3,4-tetrahydroisoquinolin-7-yl)-7-oxo-4,5,6,7-tetrahydro-1H-pyrazolo[3,4-c]pyridine-3-carboxamide] | 300 to 1000 |
| CC1CCN(Cc2cccc(N3CCc4c(C(=O)NCc5ccccc5)nn(-c5cccc(Cl)c5)c4C3=O)c2)C1 (centres unmarked) [Example 1038, N-benzyl-1-(3-chlorophenyl)-6-(3-((3-methylpyrrolidin-1-yl)methyl)phenyl)-7-oxo-4,5,6,7-tetrahydro-1H-pyrazolo[3,4-c]pyridine-3-carboxamide] | 300 to 1000 |
| CN1CCc2ccc(N3CCc4c(C(=O)NCC56COC(CO)(C5)C6)nn(-c5cccc(Cl)c5)c4C3=O)cc2C1 [Example 1050, 1-(3-chlorophenyl)-N-((1-(hydroxymethyl)-2-oxabicyclo[2.1.1]hexan-4-yl)methyl)-6-(2-methyl-1,2,3,4-tetrahydroisoquinolin-7-yl)-7-oxo-4,5,6,7-tetrahydro-1H-pyrazolo[3,4-c]pyridine-3-carboxamide] | 300 to 1000 |
| O=C(NCC1CC1)c1nn(-c2cccc(Cl)c2)c2c1CCN(c1ccc3c(c1)CN(CCF)CC3)C2=O [Example 1175, 1-(3-chlorophenyl)-N-(cyclopropylmethyl)-6-(2-(2-fluoroethyl)-1,2,3,4-tetrahydroisoquinolin-7-yl)-7-oxo-4,5,6,7-tetrahydro-1H-pyrazolo[3,4-c]pyridine-3-carboxamide] | 100 to 300 |
| COCCCN1CCc2ccc(N3CCc4c(C(=O)NCC5CC5)nn(-c5cccc(Cl)c5)c4C3=O)cc2C1 [Example 1053, 1-(3-chlorophenyl)-N-(cyclopropylmethyl)-6-(2-(3-methoxypropyl)-1,2,3,4-tetrahydroisoquinolin-7-yl)-7-oxo-4,5,6,7-tetrahydro-1H-pyrazolo[3,4-c]pyridine-3-carboxamide] | 100 to 300 |
| CNC(=O)NCCN1CCc2ccc(N3CCc4c(C(=O)NCC5CC5)nn(-c5cccc(Cl)c5)c4C3=O)cc2C1 [Example 1084, 1-(3-chlorophenyl)-N-(cyclopropylmethyl)-6-(2-(2-(3-methylureido)ethyl)-1,2,3,4-tetrahydroisoquinolin-7-yl)-7-oxo-4,5,6,7-tetrahydro-1H-pyrazolo[3,4-c]pyridine-3-carboxamide] | 100 to 300 |
| CN1CCc2ccc(N3CCc4c(C(=O)NCc5ccoc5)nn(-c5cccc(Cl)c5)c4C3=O)cc2C1 [Example 1068, 1-(3-chlorophenyl)-N-(furan-3-ylmethyl)-6-(2-methyl-1,2,3,4-tetrahydroisoquinolin-7-yl)-7-oxo-4,5,6,7-tetrahydro-1H-pyrazolo[3,4-c]pyridine-3-carboxamide] | 100 to 300 |
| Cc1cn(C)nc1CNC(=O)c1nn(-c2cccc(Cl)c2)c2c1CCN(c1cccc(CN3CCCCC3)c1)C2=O [Example 1178, 1-(3-chlorophenyl)-N-((1,4-dimethyl-1H-pyrazol-3-yl)methyl)-7-oxo-6-(3-(piperidin-1-ylmethyl)phenyl)-4,5,6,7-tetrahydro-1H-pyrazolo[3,4-c]pyridine-3-carboxamide] | 100 to 300 |
| C[C@H](NC(=O)c1nn(-c2cccc(Cl)c2)c2c1CCN(c1ccc3c(c1)C(=O)N(C)CC3)C2=O)c1cccnc1 [Example 1215, (S)-1-(3-chlorophenyl)-6-(2-methyl-1-oxo-1,2,3,4-tetrahydroisoquinolin-7-yl)-7-oxo-N-(1-(pyridin-3-yl)ethyl)-4,5,6,7-tetrahydro-1H-pyrazolo[3,4-c]pyridine-3-carboxamide] | 100 to 300 |
| O=C(NCc1ccccc1)c1nn(-c2cccc(Cl)c2)c2c1CCN(c1cccc(CN3CCOCC3)c1)C2=O [Example 1018, N-benzyl-1-(3-chlorophenyl)-6-(3-(morpholinomethyl)phenyl)-7-oxo-4,5,6,7-tetrahydro-1H-pyrazolo[3,4-c]pyridine-3-carboxamide] | 1000 to 3000 |

Second part, the molecule after the results:

| IC50 [nM] | SMILES |
| --- | --- |
| 3000 to 10000 | O=C(NCC1CC1)c1nn(-c2cccc(Cl)c2)c2c1CCN(c1cccc(N3CCOCC3=O)c1)C2=O [Example 1313, 1-(3-chlorophenyl)-N-(cyclopropylmethyl)-7-oxo-6-(3-(3-oxomorpholino)phenyl)-4,5,6,7-tetrahydro-1H-pyrazolo[3,4-c]pyridine-3-carboxamide] |
| 100 to 300 | O=C(NCc1cc(C2CC2)[nH]n1)c1nn(-c2cccc(Cl)c2)c2c1CCN(c1ccc3c(c1)C(=O)N(CCO)CC3)C2=O [Example 1259, 1-(3-chlorophenyl)-N-((5-cyclopropyl-1H-pyrazol-3-yl)methyl)-6-(2-(2-hydroxyethyl)-1-oxo-1,2,3,4-tetrahydroisoquinolin-7-yl)-7-oxo-4,5,6,7-tetrahydro-1H-pyrazolo[3,4-c]pyridine-3-carboxamide] |
| 300 to 1000 | Cc1cc(CNC(=O)c2nn(-c3cccc(Cl)c3)c3c2CCN(c2cnc4c(c2)C(=O)N(C)CC4)C3=O)nn1C [Example 1303, 1-(3-chlorophenyl)-N-((1,5-dimethyl-1H-pyrazol-3-yl)methyl)-6-(6-methyl-5-oxo-5,6,7,8-tetrahydro-1,6-naphthyridin-3-yl)-7-oxo-4,5,6,7-tetrahydro-1H-pyrazolo[3,4-c]pyridine-3-carboxamide] |
| > 4000 | CCNC(=O)c1nn(-c2cnc(N)c(Cl)c2)c2c1CCN(c1ccc3c(c1)C(=O)N(C)CC3)C2=O [Example 2031, 1-(6-amino-5-chloropyridin-3-yl)-N-ethyl-6-(2-methyl-1-oxo-1,2,3,4-tetrahydroisoquinolin-7-yl)-7-oxo-4,5,6,7-tetrahydro-1H-pyrazolo[3,4-c]pyridine-3-carboxamide] |
| 10000 to 40000 | CCOC(=O)c1nn(-c2cccc(Cl)c2)c2c1CCN(c1cccc(CN(C)C(=O)CO)c1)C2=O [Example 1322, ethyl 1-(3-chlorophenyl)-6-(3-((2-hydroxy-N-methylacetamido)methyl)phenyl)-7-oxo-4,5,6,7-tetrahydro-1H-pyrazolo[3,4-c]pyridine-3-carboxylate] |
| 300 to 1000 | Cc1ccncc1CNC(=O)c1nn(-c2cccc(Cl)c2)c2c1CCN(c1cnc3c(c1)C(=O)N(C)CC3)C2=O [Example 1302, 1-(3-chlorophenyl)-6-(6-methyl-5-oxo-5,6,7,8-tetrahydro-1,6-naphthyridin-3-yl)-N-((4-methylpyridin-3-yl)methyl)-7-oxo-4,5,6,7-tetrahydro-1H-pyrazolo[3,4-c]pyridine-3-carboxamide] |
| 300 to 1000 | Cc1cccc(-n2nc(C(=O)NCC3CC3)c3c2C(=O)N(c2ccc4c(c2)C(=O)N(C)CC4)CC3)c1 [Example 2011, N-(cyclopropylmethyl)-6-(2-methyl-1-oxo-1,2,3,4-tetrahydroisoquinolin-7-yl)-7-oxo-1-(m-tolyl)-4,5,6,7-tetrahydro-1H-pyrazolo[3,4-c]pyridine-3-carboxamide] |
| 3000 to 10000 | CN1CCc2ccc(N3CCc4c(C(=O)N5CCOCC5)nn(-c5cccc(Cl)c5)c4C3=O)cc2C1=O [Example 1272, 7-(1-(3-chlorophenyl)-3-(morpholine-4-carbonyl)-7-oxo-1,4,5,7-tetrahydro-6H-pyrazolo[3,4-c]pyridin-6-yl)-2-methyl-3,4-dihydroisoquinolin-1(2H)-one] |
| 3000 to 10000 | Cc1cc(CNC(=O)c2nn(-c3cccc(Cl)c3)c3c2CCN(c2ccc4c(c2)N(C)C(=O)C4(C)C)C3=O)nn1C [Example 1276, 1-(3-chlorophenyl)-N-((1,5-dimethyl-1H-pyrazol-3-yl)methyl)-7-oxo-6-(1,3,3-trimethyl-2-oxoindolin-6-yl)-4,5,6,7-tetrahydro-1H-pyrazolo[3,4-c]pyridine-3-carboxamide] |
| 10 to 100 | CN1CCc2ccc(N3CCc4c(C(=O)N[C@H](CO)c5ccccc5)nn(-c5cccc(Cl)c5F)c4C3=O)cc2C1 [Example 2001, (S)-1-(3-chloro-2-fluorophenyl)-N-(2-hydroxy-1-phenylethyl)-6-(2-methyl-1,2,3,4-tetrahydroisoquinolin-7-yl)-7-oxo-4,5,6,7-tetrahydro-1H-pyrazolo[3,4-c]pyridine-3-carboxamide] |
| 100 to 300 | CC(C)n1ccc(CNC(=O)c2nn(-c3cccc(Cl)c3)c3c2CCN(c2ccc4c(c2)C(=O)N(C)CC4)C3=O)n1 [Example 1296, 1-(3-chlorophenyl)-N-((1-isopropyl-1H-pyrazol-3-yl)methyl)-6-(2-methyl-1-oxo-1,2,3,4-tetrahydroisoquinolin-7-yl)-7-oxo-4,5,6,7-tetrahydro-1H-pyrazolo[3,4-c]pyridine-3-carboxamide] |
